Source: patent publication US10512700B2, “Radiohalide-labeled targeted diagnostics and therapeutics” (Memorial Sloan Kettering Cancer Center, priority 2014, dated 2019)
“And” between values parts separate entries of the source, which are not always exact repeats. Equal values may be shown once.

Key:
[1] = test system: U87 MG tumor bearing mice; assay: Biodistribution; type: in vivo, mouse; settings: i.v.
Experimental: Biodistribution experiments were conducted on female nude mice (8-10 weeks old and 20-25 g in weight, n=21) bearing U87 MG subcutaneous xenografts. The radiolabeled preparation (20-30 μCi of compound C-2d (^131I) in 200 μL of a solution 90% PBS 10% PEG300) was administrated via the lateral tail vein. To determine a suitable specific activity (to achieve a sufficiently high tumor to organ ratio), several specific activities were tested (5 mCi/μmol, 50 mCi/μmol, 250 mCi/μmol) in mice bearing U87 MG tumors. The compound was allowed to circulate for 2 h post injection at which time mice were sacrificed and organs were harvested (n=3). The radioactive content in tissue of interest (blood, tumor, muscle, bone, liver, spleen, kidney, heart, lung, pancreas, brain, skin, small intestine, large intestine, stomach, tail, thyroid and feces) was measured on a Wizard 2470 Automatic Gamma Counter, and the tissue-associated activity was calculated as the mean % ID/g using the following formula: [(activity in the target organ/grams of tissue)/injected dose]×100%.
After determining the optimal specific activity (of the three tested), a suitable time window for imaging was determined by testing the compound distribution in nude mice bearing U87 MG tumors at different time points. The compound was allowed to circulate for various times (1, 2, and 6 h), after which the mice were sacrificed (n=3).

[2] = Stability in whole blood (in vitro); type: in vitro ADME, mouse
Experimental: […] […] The sample was centrifuged at 3000 RCF for 3 min at 4° C., and the supernatant collected. This procedure was repeated three times, and the combined supernatants analyzed by HPLC equipped with radioactive detector (Shimadzu, Kyoto, Japan), collecting samples every 30 sec. Radioactivity of each fraction was measured on a Wizard 2470 Automatic Gamma Counter (Perkin Elmer, Waltham, Mass.) and the blood stability was analyzed using Prism 6.0c (GraphPad Software, La Jolla, Calif.).

In the case of `O=C(c1ccc([131I])cc1)N1CCN(C(=O)c2cc(Cc3n[nH]c(=O)c4ccccc34)ccc2F)CC1` [C-2d (^131I)], the “% ID/g, Bone” value ([1]; 1 h post injection) was 0.19 % ID/g, the “% ID/g, Brain” value ([1]; 1 h post injection) was 0.034 % ID/g and the “% ID/g, Feces” value ([1]; 1 h post injection) was 7.31 % ID/g. The “% ID/g, Heart” value ([1]; 1 h post injection) was 0.39 % ID/g, the “% ID/g, Kidneys” value ([1]; 1 h post injection) was 1.60 % ID/g and the “% ID/g, Large intestine” value ([1]; 1 h post injection) was 1.49 % ID/g. For the same compound, the “% ID/g, Liver” value ([1]; 1 h post injection) was 4.61 % ID/g, the “% ID/g, Lung” value ([1]; 1 h post injection) was 0.71 % ID/g and the “% ID/g, Muscle” value ([1]; 1 h post injection) was 0.27 % ID/g. For the same compound, the “% ID/g, Pancreas” value ([1]; 1 h post injection) was 0.74 % ID/g, the “% ID/g, Skin” value ([1]; 1 h post injection) was 0.46 % ID/g and the “% ID/g, Small intestine” value ([1]; 1 h post injection) was 13.70 % ID/g. The “% ID/g, Spleen” value ([1]; 1 h post injection) was 0.64 % ID/g, the “% ID/g, Stomach” value ([1]; 1 h post injection) was 1.88 % ID/g and the “% ID/g, Tail” value ([1]; 1 h post injection) was 1.00 % ID/g. For the same compound, the “% ID/g, Thyroid” value ([1]; 1 h post injection) was 0.56 % ID/g, the “% ID/g, Tumor” value ([1]; 1 h post injection) was 0.50 % ID/g and the “% ID/g, Blood” value ([1]; 2 h post injection) was 0.90 % ID/g. The “% ID/g, Bone” value ([1]; 2 h post injection) was 0.044 % ID/g, the “% ID/g, Brain” value ([1]; 2 h post injection) was 0.007±0.002 % ID/g and 0.007 % ID/g and the “% ID/g, Feces” value ([1]; 2 h post injection) was 3.75 % ID/g. For the same compound, the “% ID/g, Heart” value ([1]; 2 h post injection) was 0.10 % ID/g, the “% ID/g, Kidneys” value ([1]; 2 h post injection) was 0.35 % ID/g and the “% ID/g, Large intestine” value ([1]; 2 h post injection) was 0.94 % ID/g. The “% ID/g, Liver” value ([1]; 2 h post injection) was 1.02 % ID/g, the “% ID/g, Lung” value ([1]; 2 h post injection) was 0.28 % ID/g and the “% ID/g, Muscle” value ([1]; 2 h post injection) was 0.04±0.02 % ID/g and 0.039 % ID/g. The “% ID/g, Pancreas” value ([1]; 2 h post injection) was 0.42 % ID/g, the “% ID/g, Skin” value ([1]; 2 h post injection) was 0.091 % ID/g and the “% ID/g, Small intestine” value ([1]; 2 h post injection) was 7.16 % ID/g. The “% ID/g, Spleen” value ([1]; 2 h post injection) was 0.15 % ID/g, the “% ID/g, Stomach” value ([1]; 2 h post injection) was 1.90 % ID/g and the “% ID/g, Tail” value ([1]; 2 h post injection) was 0.45 % ID/g. The “% ID/g, Thyroid” value ([1]; 2 h post injection) was 0.14 % ID/g, the “% ID/g, Tumor” value ([1]; 2 h post injection) was 0.17±0.06 % ID/g and 0.17 % ID/g and the “% ID/g, Blood” value ([1]; 6 h post injection) was 0.34 % ID/g. The “% ID/g, Bone” value ([1]; 6 h post injection) was 0.035 % ID/g, the “% ID/g, Brain” value ([1]; 6 h post injection) was 0.008 % ID/g and the “% ID/g, Feces” value ([1]; 6 h post injection) was 70.67 % ID/g. For the same compound, the “% ID/g, Heart” value ([1]; 6 h post injection) was 0.075 % ID/g, the “% ID/g, Kidneys” value ([1]; 6 h post injection) was 0.24 % ID/g and the “% ID/g, Large intestine” value ([1]; 6 h post injection) was 1.33 % ID/g. For the same compound, the “% ID/g, Liver” value ([1]; 6 h post injection) was 0.65 % ID/g, the “% ID/g, Lung” value ([1]; 6 h post injection) was 0.12 % ID/g and the “% ID/g, Muscle” value ([1]; 6 h post injection) was 0.023 % ID/g. For the same compound, the “% ID/g, Pancreas” value ([1]; 6 h post injection) was 0.084 % ID/g, the “% ID/g, Skin” value ([1]; 6 h post injection) was 0.072 % ID/g and the “% ID/g, Small intestine” value ([1]; 6 h post injection) was 1.13 % ID/g. The “% ID/g, Spleen” value ([1]; 6 h post injection) was 0.060 % ID/g, the “% ID/g, Stomach” value ([1]; 6 h post injection) was 0.81 % ID/g and the “% ID/g, Tail” value ([1]; 6 h post injection) was 0.31 % ID/g. The “% ID/g, Thyroid” value ([1]; 6 h post injection) was 0.098 % ID/g, the “% ID/g, Tumor” value ([1]; 6 h post injection) was 0.13 % ID/g and the “in vitro blood stability” value ([2]; mouse blood, 37° C., over 60 min) was “confirmed the stability of the compound”. For the same compound, the “in vitro blood stability” value ([2]; over the course of 120 minutes) was “confirmed the stability of the compound”.
